Like-named read-outs stand apart in the source and are kept apart here. Blank lines part the entries; values can stand above or below the compound they belong to.
Columns and labels:
[1] = target: T1, LTD4 receptor (guinea-pig lung membranes) (Cavia porcellus, UniProt Q2NNR5); test: biochemical; settings: for effect of divalent cation on [3H]LTD4 specific binding: CaCl2 at concentrations above 30 mM, MgCl2 instead of CaCl2
T1 sequence (Q2NNR5 1-340): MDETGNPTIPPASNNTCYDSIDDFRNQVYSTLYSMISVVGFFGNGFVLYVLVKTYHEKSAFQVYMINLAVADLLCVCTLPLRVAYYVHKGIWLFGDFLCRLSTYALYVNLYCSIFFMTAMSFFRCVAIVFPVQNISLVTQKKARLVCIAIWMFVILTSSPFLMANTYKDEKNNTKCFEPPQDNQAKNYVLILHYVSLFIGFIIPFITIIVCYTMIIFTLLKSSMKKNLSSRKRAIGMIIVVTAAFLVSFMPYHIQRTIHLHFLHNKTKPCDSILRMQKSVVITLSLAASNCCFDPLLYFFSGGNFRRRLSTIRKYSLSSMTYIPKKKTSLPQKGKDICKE
Experimental: (§1) Guinea pigs (male; 350 g) were sacrificed by cervical dislocation and the lung tissues removed. All subsequent procedures were performed either on ice or at 4° C. Connective tissue, trachea, large blood vessels and major airways were dissected away and the remaining lung tissue (primarily parenchyma) was finely minced prior to homogenisation in 10 vol of 10 mM HEPES/KOH pH 7.4, containing 0.25 M sucrose, 2 mM EDTA, 2 mM phenylmethylsulphonyl fluoride, 10 μg/ml pepstatin, 10 μg/ml leupeptin and 10 μM E-64, using 5 s bursts of a polytron (Brinkman Instruments). The homogenate was subjected to differential centrifugation at 1000×g for 10 min, 10,000×g for 10 min and 100,000×g for 40 min. The resulting 100,000×g pellets were resuspended in 10 mM HEPES/KOH pH 7.4, containing 10% (w/v) sucrose, at a final protein concentration of 1-2 mg/ml. This tissue suspension was carefully layered over 10 mM HEPES/KOH pH 7.4 containing 40% (w/v) sucrose in a 3:2 (v/v) ratio. The discontinuous sucrose gradient was centrifuged at 83,000×g for 60 min. The membrane fraction located at the interface of the sucrose gradient layers was recovered, diluted 10-fold in 10 mM HEPES/KOH pH 7.4 and further centrifuged at 150,000×g for 40 min. The final membrane pellets were resuspended in 10 mM HEPES/KOH pH 7.4 at a protein concentration of 2-4 mg/ml and stored at […].
Competition experiments were analysed and IC50 values derived using the Kinetic, EBDA, Ligand, […] program from Biosoft (McPherson, 1985).
(§2) FIG. 4. […] Radiolabelled proteins were resolved by SDS-PAGE and visualized by autoradiography. […] In addition, photoaffinity labelled membranes were subjected to immunoprecipitation with RAGpAlb (Lane C) and non-immune rabbit serum (Lane D), as described in the Methods. The migration of molecular weight standards is indicated on the left. FIGS. 5(A)-5(C). […] Results are expressed as percentage of maximum specific binding as a function of CaCl2 concentration. […] Only the results for total binding are shown.
(§3) Results are expressed as percentage of maximum specific binding as a function of nucleotide concentration. […] Only the results for total binding are shown.
(§4) Results are expressed as percentage of maximum specific binding as a function of cation concentration. […] Only the results for total binding are shown.

[2] = target: T1, LTD4 receptor (guinea-pig lung membranes); settings: for effect of divalent cation on [125I]Azido-LTD4 specific binding: CaCl2 at concentrations above 30 mM, MgCl2 instead of CaCl2
Experimental: as §1
Filters were then washed with 16 ml of 10 mM HEPES/KOH, pH 7.4 containing 0.01% (w/v) bovine serum albumin, at 4° C.
as §2, §3, §4

[3] = tested on: 45 kDa guinea-pig lung membrane protein; test: [125I]Azido-LTD4 photoaffinity labelling of the 45 kDa guinea-pig lung membrane protein (SDS-PAGE, autoradiography, laser densitometry); type: binding; settings: for effect of divalent cation on photolabelling of the 45 kDa protein: CaCl2, same concentration range, MgCl2 instead of CaCl2
Experimental: as §1
(§5) Samples were incubated for 60 min at room temperature. […] The residual samples were then transferred to 25 mm diameter cluster plate well for photolysis. The cluster plates were placed on aluminium blocks, pre-cooled to -20° C., and illuminated from above with a 40 W ultraviolet light source (Phillips, γmax =350 nm) at a distance of 10 cm for 2 min. The guinea-pig lung membranes were then recovered from 1 ml sample aliquots by centrifugation at 150,000×g for 15 min at 4° C. and solubilized in sodium dodecyl sulphate polyacrylamide gel electrophoresis (SDS-PAGE) sample buffer prior to resolution of the proteins by SDS-PAGE (Laemmli, 1970). Protein bands were visualized by Coomassie Blue staining while radiolabelled proteins were identified by autoradiography of dried gels and quantified by laser densitometry (Molecular Dynamics, ImageQuant).
as §2, §3, §4

[4] = target: T2, 45 kDa guinea-pig lung membrane protein (Cavia porcellus, UniProt Q2NNR5); test: as above; type: binding; settings: for IC50: laser densitometry, leukotrienes and antagonists, read-out: IC50 for inhibition of photolabelling of the 45 kDa protein
T2 construct: Guinea pigs (male; from tissue; host or cells: guinea-pig lung (primarily parenchyma), sucrose-gradient membrane fraction
T2 sequence (Q2NNR5 1-340): T1 sequence (Q2NNR5 1-340)
Experimental: as §1, §5, §2, §3, §4

[5] = target: T1, LTD4 receptor (guinea-pig lung membranes); test: Rates of association and dissociation of radioligand binding to guinea-pig lung membranes; design: Guinea pigs (male; from tissue; host or cells: guinea-pig lung (primarily parenchyma), sucrose-gradient membrane fraction; settings: identical experimental conditions; data not shown
Experimental: FIG. 3. […] Aliquots (500 μl) were removed and filtered at the required time intervals.

[6] = target: T1, LTD4 receptor (guinea-pig lung membranes); test: Saturation binding to guinea-pig lung membranes, Scatchard plot analysis; design: Guinea pigs (male; 350 g) were sacrificed by cervical dislocation and the lung tissues removed; from tissue; host or cells: guinea-pig lung (primarily parenchyma), sucrose-gradient membrane fraction; settings: Scatchard, single site

SMILES: Nc1ncnc2c1ncn2[C@@H]1O[C@H](COP(=O)(O)OP(=O)(O)OP(O)(O)=S)[C@@H](O)[C@H]1O [ATPγS]
effect of nucleotide analogue on [3H]LTD4 specific binding ([1]; ATPγS): no detectable effect
potency relative to GTPγS in inhibiting [125I]Azido-LTD4 specific binding (fold less potent) ([2]; ATPγS vs GTPγS): 100 fold

SMILES: [Ca+2].[Cl-].[Cl-] [CaCl2]
concentration for optimal [3H]LTD4 specific binding [1]: 3 to 30 mM
effect of divalent cation on [3H]LTD4 specific binding [1]: higher concentrations proving inhibitory
concentration for optimal [125I]Azido-LTD4 specific binding [2]: 3 to 30 mM
effect of divalent cation on [125I]Azido-LTD4 specific binding [2]: higher concentrations proving inhibitory
concentration for optimal radiolabelling of the 45 kDa protein [3]: 3 to 30 mM
effect of divalent cation on photolabelling of the 45 kDa protein [3]: enhanced

SMILES: Nc1nc2c(ncn2[C@@H]2O[C@H](COP(=O)(O)OP(=O)(O)OP(O)(O)=S)[C@@H](O)[C@H]2O)c(=O)[nH]1 [GTPγS]
inhibition at 1000 µM ([1]; read-out: inhibition of [3H]LTD4 specific binding): 60%
inhibition of [125I]Azido-LTD4 specific binding ([2]; 10 μM GTPγS): complete inhibition
potency relative to ATPγS in inhibiting photolabelling of the 45 kDa protein (fold more potent) ([3]; GTPγS vs ATPγS): 100 fold
IC50 ([3]; nucleotide analogue, read-out: IC50 for inhibition of photolabelling of the 45 kDa protein): 1 µM

SMILES: [Cl-].[K+] [KCl]
inhibition of [3H]LTD4 specific binding ([1]; KCl, 0-100 mM): did not significantly inhibit
inhibition of [125I]Azido-LTD4 specific binding ([2]; KCl, 0-100 mM): did not significantly inhibit
inhibition of photolabelling of the 45 kDa protein ([3]; KCl, 0-100 mM): did not significantly inhibit

SMILES: [Cl-].[Cl-].[Mg+2] [MgCl2]
effect of divalent cation on [3H]LTD4 specific binding [1]: Identical results
effect of divalent cation on [125I]Azido-LTD4 specific binding [2]: Identical results
effect of divalent cation on photolabelling of the 45 kDa protein [3]: Identical results

SMILES: [Cl-].[Na+] [NaCl]
IC50 ([1]; read-out: IC50 for inhibition of [3H]LTD4 specific binding, monovalent cation): ~30000 µM
IC50 ([2]; read-out: IC50 for inhibition of [125I]Azido-LTD4 specific binding, monovalent cation): ~30000 µM
IC50 ([3]; monovalent cation, read-out: IC50 for inhibition of radiolabelling of the 45 kDa protein): ~30000 µM

SMILES: CCCCC/C=C\C\C=C/C=C/C=C/[C@@H](SCC(N)C(=O)NCC(=O)O)[C@@H](O)CCCC(=O)O (some centres unmarked) [[^3 H]LTD4]
association and dissociation profile compared with [125I]Azido-LTD4 [5]: identical
maximum number of binding sites (Bmax) [6]: 2000 fmol/mg protein

SMILES: CCCCC/C=C\C\C=C/C=C/C=C/[C@@H](SC[C@H](NC(=O)CCCCCNC(=O)c1cc(I)c(N=[N+]=[N-])cc1O)C(=O)NCC(=O)O)[C@@H](O)CCCC(=O)O [^127 lAzido-LTD4]
Ki [1]: 0.0017 µM
Ki relative to LTD4 (fold higher) ([1]; vs Ki of LTD4, same assay): 5 fold

SMILES: COc1cc(C(=O)NS(=O)(=O)c2ccccc2C)ccc1Cc1cn(C)c2ccc(NC(=O)OC3CCCC3)cc12 [lCl 204,219]
IC50 [4]: 0.0003 µM

Further lines, with some results ahead:

potency relative to LTD4 (fold less potent), [3H]LTD4 specific binding ([1]; vs LTD4): approximately 10000 fold
potency relative to LTD4 (fold less potent), [125I]Azido-LTD4 specific binding ([2]; vs LTD4): approximately 10000 fold
concentration at which it competes for radiolabelling of the 45 kDa protein ([4]; LTB4): 10 µM
SMILES: CCCCC/C=C\C[C@@H](O)/C=C/C=C/C=C\[C@@H](O)CCCC(=O)O [LTB4]

IC50 [1]: 0.002 µM
IC50 ([2]; read-out: IC50 for competition with [125I]Azido-LTD4 specific binding, leukotrienes and antagonists, LTC4 with 50 mM serine-borate): 0.003 µM
IC50 [4]: 0.001 µM
SMILES: CN(C)C(=O)CCSC(SCCC(=O)O)c1cccc(/C=C/c2ccc3ccc(Cl)cc3n2)c1 (centres unmarked) [MK-571]

concentration producing inhibition of [3H]LTD4 specific binding ([1]; weak competing ligand): > 1 µM
concentration producing inhibition of [125I]Azido-LTD4 specific binding ([2]; weak competing ligand): > 1 µM
SMILES: CC(C)c1ccc2c(c1)c(SC(C)(C)C)c(CC(C)(C)C(=O)O)n2Cc1ccc(Cl)cc1 [MK-886]
competition for radiolabelling of the 45 kDa protein ([4]; MK-886, 0-10 μM): only able to compete for the selective radiolabelling of the 45 kDa protein at similarly high ligand concentrations

Source: US5310884A (Merck Frosst Canada, Inc., priority 1992, dated 1994)
